Results reported in patent US12534472B2, “Morphic forms of trilaciclib and methods of manufacture thereof” (Pharmacosmos Holding A/S, priority 2020, dated 2026).
Entries after “also recorded” stand apart in the source; their conditions may differ.

Columns and labels:
Format in all cases: physicochemical
[1] = Competitive slurry experiments
Description: Competitive slurry experiments were carried out using ca. 10 mg of Pattern 1, Pattern 2/6 mixture and Pattern 3 were weighed out and added to a 1.5 mL glass vial. Samples were prepared using 100 μL aliquots of solvent until a mobile slurry was formed. Samples were stirred at ambient temperature for 48 hours. A second set of samples were stirred at 60° C. for 48 hours. All samples were collected, and the solids were isolated and analyzed by XRPD. The above technique was used to generate the images in FIG. 50, FIG. 51, and FIG. 55 through FIG. 59.

[2] = Gravimetric Vapor Sorption (GVS); conditions: 25° C.
Description: Approximately 10-20 mg of sample was placed into a mesh vapor sorption balance pan and loaded into an IGASorp Moisture Sorption Analyzer balance by Hiden Analytical. The sample was subjected to a ramping profile from 40-90% relative humidity (RH) at 10% increments, maintaining the sample at each step until a stable weight had been achieved (98% step completion, minimum step length 30 minutes, maximum step length 60 minutes) at 25° C. After completion of the sorption cycle, the sample was dried using the same procedure to 0% RH, and finally taken back to the starting point of 40% RH. Three cycles were performed. The weight change during the sorption/desorption cycles were plotted, allowing for the hygroscopic nature of the sample to be determined. The above technique was used to generate the images in FIG. 40 and FIG. 41.

[3] = Dynamic Vapor Sorption (DVS)
Description: Approximately, 10-20 mg of sample was placed into a mesh vapor sorption balance pan and loaded into a DVS Intrinsic dynamic vapor sorption balance by Surface Measurement Systems. The sample was subjected to a ramping profile from 40-90% relative humidity (RH) at 10% increments, maintaining the sample at each step until a stable weight had been achieved (dm/dt 0.004%, minimum step length 30 minutes, maximum step length 500 minutes) at 25° C. After completion of the sorption cycle, the sample was dried using the same procedure to 0% RH and then a second sorption cycle back to 40% RH. Two cycles were performed. The weight change during the sorption/desorption cycles were plotted, allowing for the hygroscopic nature of the sample to be determined. XRPD analysis was then carried out on any solid retained. The above technique was used to generate the images in FIG. 5, FIG. 6, FIG. 47 and FIG. 48.

[4] = Thermodynamic solubility in water at pH 4.2
Description: Thermodynamic solubility was carried out for Pattern 1, Pattern 2/6 mixture, Pattern 3, amorphous di-HCl salts and Pattern 7 in water at pH 4.2. All samples were prepared at 30 mg/mL. Initial observations were made. The samples were agitated at ambient temperature for ca. 24 hours. The samples were collected and observations made. Observed solids were isolated via centrifugation. The mother liquor from the filtered sample was analyzed by HPLC. The pH 4.3 solution was prepared by diluting glacial acetic acid (11.6 mL) to 100 mL in deionized water, then adding sodium acetate (1.07 g) and acetic acid solution (5.9 mL) preparing up to 500 mL with deionized water; then the pH was adjusted to 4.2. The above technique was used to generate the images in FIG. 60.

## CN1CCN(c2ccc(Nc3ncc4cc5n(c4n3)C3(CCCCC3)CNC5=O)nc2)CC1 [Pattern 1, 2′-((5-(4-methylpiperazin-1-yl)pyridin-2-yl)amino)-7′,8′-dihydro-6′H-spiro[cyclohexane-1,9′-pyrazino[1′,2′:1,5]pyrrolo[2,3-d]pyrimidin]-6′-one]
[1]
  stability compared to other morphic forms: superior stability
[2]; Cycle 1, desorption, target RH 0%
  Change in Mass (%)-ref Desorption: 0.180%
[2]; Cycle 1, desorption, target RH 10%
  Change in Mass (%)-ref Desorption: 2.320%
[2]; Cycle 1, desorption, target RH 20%
  Change in Mass (%)-ref Desorption: 2.820%
[2]; Cycle 1, desorption, target RH 30%
  Change in Mass (%)-ref Desorption: 3.110%
[2]; Cycle 1, desorption, target RH 40%
  Change in Mass (%)-ref Desorption: 3.340%
[2]; Cycle 1, desorption, target RH 50%
  Change in Mass (%)-ref Desorption: 3.580%
[2]; Cycle 1, desorption, target RH 60%
  Change in Mass (%)-ref Desorption: 3.730%
[2]; Cycle 1, desorption, target RH 70%
  Change in Mass (%)-ref Desorption: 3.820%
[2]; Cycle 1, desorption, target RH 80%
  Change in Mass (%)-ref Desorption: 3.970%
[2]; Cycle 1, desorption, target RH 90%
  Change in Mass (%)-ref Desorption: 4.160%
[2]; Cycle 1, sorption, target RH 40%
  Change in Mass (%)-ref Sorption: 3.420%
[2]; Cycle 1, sorption, target RH 50%
  Change in Mass (%)-ref Sorption: 3.560%
[2]; Cycle 1, sorption, target RH 60%
  Change in Mass (%)-ref Sorption: 3.720%
[2]; Cycle 1, sorption, target RH 70%
  Change in Mass (%)-ref Sorption: 3.800%
[2]; Cycle 1, sorption, target RH 80%
  Change in Mass (%)-ref Sorption: 3.920%
[2]; Cycle 1, sorption, target RH 90%
  Change in Mass (%)-ref Sorption: 4.160%
[2]; Cycle 2, desorption, target RH 0%
  Change in Mass (%)-ref Desorption: 0.000%
[2]; Cycle 2, desorption, target RH 10%
  Change in Mass (%)-ref Desorption: 2.240%
[2]; Cycle 2, desorption, target RH 20%
  Change in Mass (%)-ref Desorption: 2.680%
[2]; Cycle 2, desorption, target RH 30%
  Change in Mass (%)-ref Desorption: 3.020%
[2]; Cycle 2, desorption, target RH 40%
  Change in Mass (%)-ref Desorption: 3.260%
[2]; Cycle 2, desorption, target RH 50%
  Change in Mass (%)-ref Desorption: 3.500%
[2]; Cycle 2, desorption, target RH 60%
  Change in Mass (%)-ref Desorption: 3.670%
[2]; Cycle 2, desorption, target RH 70%
  Change in Mass (%)-ref Desorption: 3.780%
[2]; Cycle 2, desorption, target RH 80%
  Change in Mass (%)-ref Desorption: 3.890%
[2]; Cycle 2, desorption, target RH 90%
  Change in Mass (%)-ref Desorption: 4.080%
[2]; Cycle 2, sorption, target RH 0%
  Change in Mass (%)-ref Sorption: 0.180%
[2]; Cycle 2, sorption, target RH 10%
  Change in Mass (%)-ref Sorption: 2.300%
[2]; Cycle 2, sorption, target RH 20%
  Change in Mass (%)-ref Sorption: 2.770%
[2]; Cycle 2, sorption, target RH 30%
  Change in Mass (%)-ref Sorption: 3.030%
[2]; Cycle 2, sorption, target RH 40%
  Change in Mass (%)-ref Sorption: 3.290%
[2]; Cycle 2, sorption, target RH 50%
  Change in Mass (%)-ref Sorption: 3.470%
[2]; Cycle 2, sorption, target RH 60%
  Change in Mass (%)-ref Sorption: 3.660%
[2]; Cycle 2, sorption, target RH 70%
  Change in Mass (%)-ref Sorption: 3.780%
[2]; Cycle 2, sorption, target RH 80%
  Change in Mass (%)-ref Sorption: 3.900%
[2]; Cycle 2, sorption, target RH 90%
  Change in Mass (%)-ref Sorption: 4.080%
[2]; Cycle 3, sorption, target RH 0%
  Change in Mass (%)-ref Sorption: 0.000%
[2]; Cycle 3, sorption, target RH 10%
  Change in Mass (%)-ref Sorption: 2.250%
[2]; Cycle 3, sorption, target RH 20%
  Change in Mass (%)-ref Sorption: 2.740%
[2]; Cycle 3, sorption, target RH 30%
  Change in Mass (%)-ref Sorption: 3.020%
[2]; Cycle 3, sorption, target RH 40%
  Change in Mass (%)-ref Sorption: 3.220%
[3]; at 40% RH
  moisture adsorbed (DVS): 3.00 wt %
[3]; at 90% RH
  moisture adsorbed (DVS): 4.00 wt %
[3]; between 0% and 90% RH
  mass increase by DVS: 4%
[3]; dried sample at the conclusion of the DVS experiment
  XRPD analysis post-DVS (form stability): confirmed Pattern 1; also recorded: no change
[4]; 30 mg/mL in water at pH 4.2, agitated at ambient temperature ca. 24 hours
  Observations at T = 24 hours: Yellow solution
[4]; 30 mg/mL in water at pH 4.2, ambient temperature, T = 0 hours
  Observations at T = 0 hours: Yellow slurry
